Experimental data taken from the supplement of paper PMC10331698.
± gives the standard deviation of the averaged measurements.

Key:
Test in all cases: level (log10 ratio to DMSO vehicle control); higher = higher biomarker level / cell amount than vehicle control
Details in all cases: in DMSO
[1] = compound: C=CC(=O)OCCC(F)(F)C(F)(F)C(F)(F)C(F)(F)F [2-(Perfluorobutyl)ethyl acrylate]
Description: (§1)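 BioMAP Diversity Plus panel of 12 human primary cell co-culture systems (3C, 4H, LPS, SAg, BT, BF4T, BE3C, CASM3C, HDF3CGF, KF3CT, MyoF, Mphg). Compounds were added 1 h before stimulation and left for 24 h (MyoF 48 h; BT 72 h for soluble read-outs or 6 d for IgG). Biomarkers were read by ELISA, cytotoxicity by SRB, PBMC viability and proliferation by Alamar Blue. Each well value was divided by the mean of 8 DMSO control wells on the same plate and log10 transformed; duplicate blinded samples were tested at 4 concentrations.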

Perfluorooctanamidine = compound: N=C(N)C(F)(F)C(F)(F)C(F)(F)C(F)(F)C(F)(F)C(F)(F)C(F)(F)F [Perfluorooctanamidine]
Description: as §1

[2] = compound: O=C(O)C(F)(F)C(F)(F)C(F)(F)C(F)(F)C(F)(F)C(F)(F)C(F)(F)C(F)(F)C(F)(F)C(F)(F)C(F)(F)C(F)(F)F [Perfluorotridecanoic acid]
Description: as §1

Perfluorohexanoic acid = compound: O=C(O)C(F)(F)C(F)(F)C(F)(F)C(F)(F)C(F)(F)F [Perfluorohexanoic acid]
Description: as §1

[3] = compound: O=P(O)(O)CCC(F)(F)C(F)(F)C(F)(F)C(F)(F)C(F)(F)C(F)(F)C(F)(F)C(F)(F)F [((Perfluorooctyl)ethyl)phosphonic acid]
Description: as §1

[4] = compound: O=S(=O)(O)C(F)(F)C(F)(F)C(F)(F)C(F)(F)C(F)(F)C(F)(F)C(F)(F)C(F)(F)F [Potassium perfluorooctanesulfonate]
Description: as §1

Row | Test System | level (log10) ([1]; 6700 nM) | level (log10) ([1]; 20000 nM) | level (log10) ([1]; 60000 nM) | level (log10) (Perfluorooctanamidine; 6700 nM) | level (log10) (Perfluorooctanamidine; 20000 nM) | level (log10) (Perfluorooctanamidine; 60000 nM) | level (log10) ([2]; 1500 nM) | level (log10) ([2]; 4400 nM) | level (log10) ([2]; 13000 nM) | level (log10) ([2]; 40000 nM) | level (log10) (Perfluorohexanoic acid; 6700 nM) | level (log10) (Perfluorohexanoic acid; 20000 nM) | level (log10) (Perfluorohexanoic acid; 60000 nM) | level (log10) ([3]; 6700 nM) | level (log10) ([3]; 20000 nM) | level (log10) ([3]; 60000 nM) | level (log10) ([4]; 6700 nM) | level (log10) ([4]; 20000 nM) | level (log10) ([4]; 60000 nM)
1 | MyoF:TIMP-1 | -0.031 ± 0.048 | 0.0025 ± 0.018 | 0.016 ± 0.042 | 0.0185 ± 0.011 | 0.041 | 0.123 | 0.004 ± 0.0071 | 0.001 ± 0.011 | 0.025 ± 0.0028 | 0.0325 ± 0.0064 | 0.0085 ± 0.0021 | -0.006 ± 0.0042 | 0.0245 ± 0.0064 | 0.0415 ± 0.0078 | 0.0765 ± 0.0078 | 0.0715 ± 0.026 | 0.069 ± 0.02 | 0.0605 ± 0.03 | 0.111 ± 0.0021
2 | HDF3CGF:M-CSF | -0.0445 ± 0.0092 | -0.154 ± 0.054 | -0.259 ± 0.12 | -0.017 ± 0.014 | -0.0485 ± 0.018 | -0.177 | 0.016 | 0.0145 ± 0.049 | -0.029 ± 0.078 | -0.0295 ± 0.13 | -0.015 ± 0.059 | 0.013 ± 0.021 | -0.006 ± 0.05 | 0.0235 ± 0.016 | -0.009 ± 0.0028 | -0.113 ± 0.016 | 0.0165 ± 0.0078 | 0.012 ± 0.0014 | -0.151 ± 0.018
3 | 3C:CCL2/MCP-1 | -0.0105 ± 0.021 | -0.0305 ± 0.0035 | -0.0245 ± 0.029 | 0.0185 ± 0.012 | 0.0085 ± 0.011 | 0.062 | 0.0135 ± 0.0078 | -0.021 ± 0.0014 | -0.001 ± 0.0085 | 0.0035 ± 0.0035 | -0.006 ± 0.0028 | -0.0145 ± 0.005 | 0.0115 ± 0.022 | 0.0005 ± 0.0092 | -0.0115 ± 0.0078 | -0.0085 ± 0.06 | -0.056 ± 0.098 | -0.0125 ± 0.0035 | 0.009 ± 0.02
4 | HDF3CGF:CD54/ICAM-1 | -0.028 ± 0.025 | -0.035 ± 0.025 | -0.131 ± 0.059 | -0.0235 ± 0.0064 | -0.014 ± 0.013 | -0.072 | -0.016 ± 0.0071 | -0.0075 ± 0.015 | -0.0135 ± 0.064 | -0.0275 ± 0.12 | -0.009 ± 0.013 | -0.017 ± 0.013 | -0.019 ± 0.037 | -0.009 ± 0.0099 | -0.0235 ± 0.015 | -0.0625 ± 0.028 | -0.0015 ± 0.0064 | -0.002 ± 0.014 | -0.0525 ± 0.012
5 | KF3CT:TIMP-2 | 0.0145 ± 0.0021 | -0.0175 ± 0.0078 | -0.009 ± 0.023 | 0.01 ± 0.0014 | 0 ± 0.02 | 0.035 | 0.0125 ± 0.016 | 0.028 ± 0.013 | 0.0165 ± 0.022 | 0.0295 ± 0.015 | 0.004 ± 0.016 | -0.0125 ± 0.0035 | -0.0125 ± 0.0078 | 0.0015 ± 0.0021 | 0.013 ± 0.018 | -0.0345 ± 0.005 | -0.01 ± 0.013 | 0.002 ± 0.02 | 0.0145 ± 0.0078
6 | MyoF:bFGF | -0.0035 ± 0.0021 | -0.003 ± 0.0042 | 0.02 ± 0.011 | -0.0085 ± 0.032 | -0.0115 ± 0.03 | 0.044 | 0.005 ± 0.04 | 0.017 ± 0.028 | 0.0045 ± 0.04 | 0.015 ± 0.0085 | 0.0005 ± 0.005 | -0.0105 ± 0.019 | 0.0005 ± 0.021 | -0.0245 ± 0.018 | -0.024 ± 0.018 | -0.0585 ± 0.037 | -0.0105 ± 0.025 | -0.0195 ± 0.023 | -0.019 ± 0.028
7 | CASM3C:HLA-DR | -0.0245 ± 0.025 | -0.017 ± 0.014 | -0.0205 ± 0.011 | -0.0335 ± 0.016 | -0.0655 ± 0.011 | -0.022 | 0.0015 ± 0.0092 | -0.0285 ± 0.035 | -0.0385 ± 0.013 | -0.085 ± 0.062 | 0.004 ± 0.0099 | -0.004 ± 0.0057 | -0.004 ± 0.011 | -0.0265 ± 0.012 | -0.048 | -0.03 ± 0.081 | -0.0015 ± 0.0021 | -0.035 ± 0.028 | -0.0235 ± 0.054
8 | BE3C:SRB | -0.0035 ± 0.005 | -0.0055 ± 0.0021 | -0.0015 ± 0.0021 | -0.0075 ± 0.005 | -0.001 ± 0.016 | 0.009 | 0.0085 ± 0.019 | -0.0035 ± 0.0021 | -0.0055 ± 0.0078 | 0.0035 ± 0.0021 | -0.001 | -0.006 ± 0.0014 | 0.009 ± 0.018 | -0.004 | -0.011 ± 0.0085 | 0.0015 ± 0.015 | -0.0075 ± 0.0021 | -0.245 ± 0.034 | -0.306 ± 0.033
9 | HDF3CGF:MMP-1 | 0.0135 ± 0.0064 | 0.0905 ± 0.022 | 0.133 ± 0.022 | -0.008 ± 0.0099 | 0.012 ± 0.0085 | -0.008 | -0.0005 ± 0.035 | -0.061 ± 0.042 | -0.063 ± 0.044 | -0.068 ± 0.069 | 0.0155 ± 0.036 | 0.0045 ± 0.016 | -0.0145 ± 0.043 | -0.019 ± 0.011 | -0.021 ± 0.0057 | -0.05 ± 0.0042 | -0.0075 ± 0.011 | -0.0155 ± 0.0092 | -0.0025 ± 0.005
10 | HDF3CGF:PAI-I | -0.0135 ± 0.0035 | -0.0185 ± 0.023 | -0.016 ± 0.024 | -0.0225 ± 0.013 | 0.02 ± 0.014 | -0.233 | 0.063 | 0.0515 ± 0.023 | 0.0505 ± 0.0064 | -0.022 ± 0.027 | 0.0415 ± 0.044 | -0.0095 ± 0.021 | 0.025 ± 0.075 | -0.028 ± 0.035 | -0.101 ± 0.06 | -0.2695 ± 0.0021 | 0.0485 ± 0.0064 | 0.011 ± 0.021 | -0.181 ± 0.18
11 | BE3C:PAI-I | 0.0125 ± 0.033 | 0.038 ± 0.018 | 0.076 ± 0.021 | 0.0015 ± 0.00071 | -0.006 ± 0.0099 | -0.021 | 0.006 ± 0.017 | 0.0335 ± 0.0035 | -0.004 ± 0.042 | -0.0285 ± 0.054 | -0.019 ± 0.018 | -0.029 ± 0.011 | 0.0065 ± 0.022 | 0.015 ± 0.0014 | -0.0115 ± 0.011 | -0.032 ± 0.0042 | -0.0115 ± 0.012 | -0.255 ± 0.03 | -0.253 ± 0.037
12 | CASM3C:CD106/VCAM-1 | -0.0175 ± 0.023 | -0.0475 ± 0.0078 | -0.138 ± 0.016 | -0.0165 ± 0.00071 | -0.0195 ± 0.012 | -0.032 | -0.017 ± 0.05 | -0.0515 ± 0.015 | -0.167 ± 0.083 | -0.22 ± 0.054 | -0.013 ± 0.011 | -0.002 ± 0.014 | -0.029 ± 0.018 | -0.0325 ± 0.00071 | 0 ± 0.0014 | 0.0335 ± 0.019 | -0.0125 ± 0.019 | -0.0175 ± 0.005 | -0.104 ± 0.041
13 | HDF3CGF:Collagen III | -0.005 ± 0.0014 | -0.0605 ± 0.0021 | -0.127 ± 0.03 | -0.047 ± 0.018 | -0.196 ± 0.045 | -0.172 | -0.057 ± 0.083 | -0.27 ± 0.037 | -0.261 ± 0.034 | -0.224 ± 0.078 | 0.0515 ± 0.013 | 0.0305 ± 0.0092 | -0.0245 ± 0.071 | -0.119 ± 0.011 | -0.193 | -0.281 ± 0.029 | -0.013 ± 0.0099 | -0.0525 ± 0.042 | -0.106 ± 0.017
14 | MyoF:CD106/VCAM-1 | -0.019 ± 0.0085 | -0.044 ± 0.027 | -0.101 ± 0.045 | 0.0115 ± 0.026 | -0.002 ± 0.018 | 0.011 | -0.0105 ± 0.0078 | 0.01 ± 0.0071 | -0.003 ± 0.0085 | 0.0035 ± 0.033 | 0.002 ± 0.0057 | 0.002 ± 0.0071 | -0.0095 ± 0.013 | -0.013 ± 0.027 | -0.0105 ± 0.015 | -0.079 ± 0.03 | 0.002 ± 0.027 | 0.0045 ± 0.029 | 0.0015 ± 0.019
15 | MyoF:Decorin | 0.0005 ± 0.016 | 0.004 ± 0.016 | 0.022 ± 0.037 | 0.004 ± 0.0099 | 0.0055 ± 0.013 | 0.07 | 0.046 ± 0.05 | 0.06 ± 0.035 | 0.047 ± 0.047 | 0.0365 ± 0.039 | -0.0215 ± 0.015 | 0.0005 ± 0.023 | 0.024 ± 0.013 | 0.0185 ± 0.00071 | 0.028 ± 0.0099 | 0.0305 ± 0.046 | 0.0305 ± 0.019 | 0.0305 ± 0.013 | 0.0565 ± 0.013
